Measurements reported in patent US5328902A, “7-(substituted)-9-[(substituted glycyl)amido]-6-demethyl-6-deoxytetracyclines” (American Cyanamid Co., priority 1992, dated 1994).
Values after ≈ are worked out from the molar mass of the structure shown.

How the values were obtained:
Format in all cases: cell-based
E. coli J2175 = test: MIC, agar dilution; conditions: E. coli J2175
[1] = tested on: S. aureus UBMS 88-5 Tet M; test: microbe, parasite or virus in culture; conditions: S. aureus UBMS 88-5 Tet M
[2] = tested on: S. hemolyticus AVHAH 88-3; test: MIC, agar dilution; conditions: S. hemolyticus AVHAH 88-3
E. coli J3272 Tet C = test: microbe, parasite or virus in culture; conditions: E. coli J3272 Tet C
[3] = tested on: S. aureus UBMS 90-2 Tet M; test: microbe, parasite or virus in culture; conditions: S. aureus UBMS 90-2 Tet M
S. mariescens FPOR 8733 = test: MIC, agar dilution
E. coli #311 (MP) = test: MIC, agar dilution; conditions: E. coli #311 (MP)
E. coli UBMS 88-1 Tet B = test: microbe, parasite or virus in culture; conditions: E. coli UBMS 88-1 Tet B; 18 hours at 35° C.
S. aureus SMITH (MP) = test: MIC, agar dilution; conditions: S. aureus SMITH (MP)
E. coli ATCC 25922 = test: MIC, agar dilution; conditions: E. coli ATCC 25922
[4] = tested on: E. coli UBMS 89-2 Tet sens.; test: MIC, agar dilution; conditions: E. coli UBMS 89-2 Tet sens.
Enterococcus 12201 = test: MIC, agar dilution; conditions: Enterococcus 12201
E. coli PRP1 Tet A = test: microbe, parasite or virus in culture; conditions: E. coli PRP1 Tet A
E. coli UBMS 90-5 = test: MIC, agar dilution
S. aureus UBMS 88-4 = test: MIC, agar dilution; conditions: S. aureus UBMS 88-4
[5] = tested on: S. aureus UBMS 88-7 Tet K; test: microbe, parasite or virus in culture; conditions: S. aureus UBMS 88-7 Tet K
S. aureus IVES 1 983 = test: MIC, agar dilution; conditions: S. aureus IVES 1 983
S. aureus IVES 2943 = test: MIC, agar dilution; conditions: S. aureus IVES 2943
E. coli UBMS 89-1 Tet M = test: microbe, parasite or virus in culture; conditions: E. coli UBMS 89-1 Tet M
[6] = tested on: E. coli MC 4100 TNIOC Tet B; test: microbe, parasite or virus in culture; conditions: E. coli MC 4100 TNIOC Tet B
E. coli BAJ9003 IMP MUT = test: microbe, parasite or virus in culture; conditions: E. coli BAJ9003 IMP MUT
S. aureus ATCC 29213 = test: MIC, agar dilution; conditions: S. aureus ATCC 29213
S. aureus NEMC 8769 = test: MIC, agar dilution; conditions: S. aureus NEMC 8769
E. coli UBMS 90-4 Tet M = test: microbe, parasite or virus in culture; conditions: E. coli UBMS 90-4 Tet M
S. aureus UBMS 90-3 = test: MIC, agar dilution; conditions: S. aureus UBMS 90-3
S. aureus ROSE (MP) = test: MIC, agar dilution; conditions: S. aureus ROSE (MP)
[7] = tested on: X. maltophilia NEMC 87210; test: MIC, agar dilution
[8] = tested on: E. coli MC 4100 Tet sens.; test: MIC, agar dilution
[9] = tested on: S. aureus UBMS 90-1 Tet M; test: microbe, parasite or virus in culture; conditions: S. aureus UBMS 90-1 Tet M
E. faecalis ATCC 29212 = test: MIC, agar dilution; conditions: E. faecalis ATCC 29212
[10] = tested on: Ps. acruginosa ATCC 27853; test: MIC, agar dilution; conditions: Ps. acruginosa ATCC 27853
E. coli J3272 Tet D = test: microbe, parasite or virus in culture; conditions: E. coli J3272 Tet D

| SMILES | MIC (E. coli J2175) [µg/mL] | MIC [1] [µg/mL] | MIC [2] [µg/mL] | MIC (E. coli J3272 Tet C) [µg/mL] | MIC [3] [µg/mL] | MIC (S. mariescens FPOR 8733) [µg/mL] | MIC (E. coli #311 (MP)) [µg/mL] | MIC (E. coli UBMS 88-1 Tet B) [µg/mL] | MIC (S. aureus SMITH (MP)) [µg/mL] | MIC (E. coli ATCC 25922) [µg/mL] | MIC [4] [µg/mL] | MIC (Enterococcus 12201) [µg/mL] | MIC (E. coli PRP1 Tet A) [µg/mL] | MIC (E. coli UBMS 90-5) [µg/mL] | MIC (S. aureus UBMS 88-4) [µg/mL] | MIC [5] [µg/mL] | MIC (S. aureus IVES 1 983) [µg/mL] | MIC (S. aureus IVES 2943) [µg/mL] | MIC (E. coli UBMS 89-1 Tet M) [µg/mL] | MIC [6] [µg/mL] | further results |
| --- | --- | --- | --- | --- | --- | --- | --- | --- | --- | --- | --- | --- | --- | --- | --- | --- | --- | --- | --- | --- | --- |
| CN(C)c1cc(NC(=O)CNCCO)c(O)c2c1CC1CC3C(N(C)C)C(O)=C(C(N)=O)C(=O)C3(O)C(O)=C1C2=O.Cl (stereo not drawn) [P, [4S-(4alpha,12aalpha)]-4,7-Bis(dimethylamino)-1.4,4a,5,5a,6,11,12a-octahydro-3,10, 12,12a-tetrahydroxy-9-[[[(2-hydroxyethyl)amino]acetyl]amino]-1,11-dioxo-2-naphthacenecarboxamide monohydrochloride] | 32 | 32 | 32 | > 32 | 16 | > 32 | 16 | > 32 | 4 | 16 | > 32 | 8 | > 32 | 32 | 8 | 32 | > 32 | > 32 | > 32 | > 32 | MIC (E. coli BAJ9003 IMP MUT): 2 µg/mL; MIC (S. aureus ATCC 29213): 8 µg/mL; MIC (S. aureus NEMC 8769): 4 µg/mL; MIC (E. coli UBMS 90-4 Tet M): 32 µg/mL; MIC (S. aureus UBMS 90-3): 8 µg/mL; MIC (S. aureus ROSE (MP)): > 32 µg/mL; MIC [7]: > 32 µg/mL; MIC [8]: 4 µg/mL; MIC [9]: 32 µg/mL; MIC (E. faecalis ATCC 29212): 4 µg/mL; MIC [10]: > 32 µg/mL; MIC (E. coli J3272 Tet D): 16 µg/mL |
| CN(CCO)CC(=O)Nc1cc(N(C)C)c2c(c1O)C(=O)C1=C(O)[C@]3(O)C(=O)C(C(N)=O)=C(O)[C@@H](N(C)C)C3CC1C2 (stereo partly shown) [Q] | 32 (≈ 54.5 µM) | 16 (≈ 27.2 µM) | 16 (≈ 27.2 µM) | > 32 | 16 (≈ 27.2 µM) | 16 (≈ 27.2 µM) | 32 (≈ 54.5 µM) | 32 (≈ 54.5 µM) | 8 (≈ 13.6 µM) | 32 (≈ 54.5 µM) | 32 (≈ 54.5 µM) | 4 (≈ 6.81 µM) | > 32 | 32 (≈ 54.5 µM) | 8 (≈ 13.6 µM) | 32 (≈ 54.5 µM) | > 32 | > 32 | 32 (≈ 54.5 µM) | > 32 | MIC (E. coli BAJ9003 IMP MUT): 2 µg/mL (≈ 3.4 µM); MIC (S. aureus ATCC 29213): 16 µg/mL (≈ 27.2 µM); MIC (S. aureus NEMC 8769): 8 µg/mL (≈ 13.6 µM); MIC (E. coli UBMS 90-4 Tet M): 16 µg/mL (≈ 27.2 µM); MIC (S. aureus UBMS 90-3): 8 µg/mL (≈ 13.6 µM); MIC (S. aureus ROSE (MP)): > 32 µg/mL; MIC [7]: 8 µg/mL (≈ 13.6 µM); MIC [8]: 4 µg/mL (≈ 6.81 µM); MIC [9]: 32 µg/mL (≈ 54.5 µM); MIC (E. faecalis ATCC 29212): 4 µg/mL (≈ 6.81 µM); MIC [10]: > 32 µg/mL; MIC (E. coli J3272 Tet D): 32 µg/mL (≈ 54.5 µM) |
